Experimental findings from patent US20140044656A1, “NOVEL USE” (DSM IP ASSETS B.V., priority 2011, published 2014) are described below.

The subject of series [1] is Normal human melanocytes NHM (HEMn-MP, Clonetics). In words: Quantification of melanin synthesis in cell culture. The format is cell-based. The following applies: for total melanin content versus control (100%): three days, absorbance at 405 nm. How it is done: Normal human melanocytes NHM (HEMn-MP, Clonetics) were seeded in 96 well cell culture plates and grown to sub-confluence for two days in a mixture of M2-Medium (Clonetics) and Medium (Promocell). Culture medium was exchanged with Culture Medium containing Steviol (96%) and melanogenesis progressed for another three days at 37° C. with another medium exchange on day two. Including cell layer and culture supernatant the total melanin was extracted using 1.7M KOH with vigorous shaking at RT. The total melanin content was determined at 405 nm in an absorbance plate reader versus a control (100%)

The nature of series [2]: Discoloration experiment (Pantone Color Index of aqueous solution at different pH). The series is classed as physicochemical. Conditions: for Pantone Index: 1% solution in water. How it is done:
Steviol (87%) was dissolved at 1 wt.-% in water and the pH adjusted to different values as shown below. At pH 9, the solution turns brown within 1 day. However, the more acidic the pH, the less discoloration was observed. The color was determined visually using the Pantone Color Index. Pantone Colours index of 1% Steviol solution in water at different pH: […]

Turning to `C=C1C[C@@]23CC[C@H]4[C@@](C)(CCC[C@@]4(C)C(=O)O)[C@@H]2CC[C@]1(O)C3` [Steviol, steviol], the “effect on the production of melanin in human melanocytes” value in series [1] (0.25-1 microM) is listed as “clear dose dependent positive effect”. The “total melanin content versus control (100%)” value is listed as 109% in series [1] (0.25 microM), 124% in series [1] (0.5 micro M) and 130% in series [1] (1 micro M). Moreover, in series [1] (melanin production in human melanocytes), the “potency relative to the positive control Glycyrrhizin” value is reported as “about 1000 times”. Also, the “Pantone Index” value in series [2] (pH 6, visual) amounted to 155; in series [2] (pH 6.5, visual) it was 155; in series [2] (pH 7, visual) it was 158; in series [2] (pH 9, visual), 160. For the same compound, the “time until solution turns brown” value in series [2] (1 wt.-% in water, pH 9) was not above 1 days.
